SMILES strings stand for the structures.

In the case of `COc1cc2ncnc(N3CCN(C(=O)NS(=O)(=O)c4ccccc4)CC3)c2cc1OC` [Compound 5, N-Benzenesulfonyl-4-(6,7-dimethoxy-4-quinazolinyl)-1-piperazinecarboxamide], the melting point was in the range of 98 to 100 °C.
Compound `COc1cc2ncnc(N3CCN(C(=O)N[C@H](C)c4ccccc4)CC3)c2cc1OC` [Compound 128, (R)-4-(6,7-Dimethoxy-4-quinazolinyl)-N-(1-phenylethyl)-1-piperazinecarboxamide] yielded a melting point of 189 to 190 °C.
Take `S=C(NCc1ccccc1)N1CCN(c2ncnc3cc(Cl)ccc23)CC1` [Compound 317, N-Benzyl-4-(7-chloro-4-quinazolinyl)-1-piperazinethiocarboxamide]: the melting point was 70 to 71 °C.
Next, `COc1cc2c(N3CCN(C(=S)NCc4cccnc4)CC3)ncnc2cc1OC(C)C` [Compound 342, 4-(7-Isopropoxy-6-methoxy-4-quinazolinyl)-N-(3-picolyl)-1-piperazinethiocarboxamide]: 205 to 206 °C.
Compound `CC(=O)c1ccc(NC(=O)N2CCN(c3ncnc4c(Cl)cccc34)CC2)cc1` [Compound 325, N-(4-Acetylphenyl)-4-(8-chloro-4-quinazolinyl)-1-piperazinecarboxamide] returned a melting point of 208 to 209 °C.
With `COc1ccc(CNC(=O)N2CCN(c3ncnc4cc(OC)c(OC)cc34)CC2)cc1` [Compound 198, 4-(6,7-Dimethoxy-4-quinazolinyl)-N-(4-methoxybenzyl)-1-piperazinecarboxamide] the figure was 147 to 148 °C; with `COc1ccc(CNC(=S)N2CCN(c3ncnc4cc(OC)c(OC)cc34)CC2)cc1` [Compound 199, 4-(6,7-Dimethoxy-4-quinazolinyl)-N-(4-methoxybenzyl)-1-piperazinethiocarboxamide], 201 to 204 °C; with `O=C(Nc1ccc(Oc2ccccc2)cc1)N1CCN(c2ncnc3ccc(Cl)cc23)CC1` [Compound 301, 4-(6-Chloro-4-quinazolinyl)-N-(4-phenoxyphenyl)-1-piperazinecarboxamide], 116 to 120 °C.
Regarding `O=C(Nc1ccc(Oc2ccccc2)cc1)N1CCN(c2nnc(Cl)c3ccccc23)CC1` [Compound 416, 4-(4-Chloro-1-phthalazinyl)-N-(4-Phenoxyphenyl)-1-piperazinecarboxamide], the melting point fell in the range of 196 to 197 °C.
With `C#CCNC(=S)N1CCN(c2ncnc3cc(OC)c(OC)cc23)CC1` [Compound 16, 4-(6,7-Dimethoxy-4-quinazolinyl)-N-(2-propynyl)-1-piperazinethiocarboxamide] the figure was 158 to 160 °C; with `CC(C)c1ccc(NC(=O)N2CCN(c3ncnc4ccc(Cl)cc34)CC2)cc1` [Compound 300, 4-(6-Chloro-4-quinazolinyl)-N-(4-isopropylphenyl)-1-piperazinecarboxamide], 192 to 193 °C.
The compound `O=C(Nc1ccc(Oc2ccccc2)cc1)N1CCN(c2ncnc3ccc(Br)cc23)CC1` [Compound 303, 4-(6-Bromo-4-quinazolinyl)-N-(4-phenoxyphenyl)-1-piperazinecarboxamide] had a melting point of 169 to 170 °C.
In turn, `COc1cc2ncnc(N3CCN(C(=S)NC(=O)c4ccco4)CC3)c2cc1OC` [Compound 95, 4-(6,7-Dimethoxy-4-quinazolinyl)-N-(2-furoyl)-1-piperazinethiocarboxamide] yielded a melting point of 187 to 189 °C.
The compound `COc1cc2ncnc(N3CCN(C(=S)NCc4ccc(Cl)c(Cl)c4)CC3)c2cc1OC` [Compound 195, N-(3,4-Dichlorobenzyl)-4-(6,7-dimethoxy-4-quinazolinyl)-1-piperazinethiocarboxamide] registered a melting point of 197 to 200 °C.
Consider `O=C(Nc1ccc([N+](=O)[O-])cc1)N1CCN(c2ncnc3cc4c(cc23)OCO4)CC1` [Compound 368, 4-(6,7-Methylenedioxy-4-quinazolinyl)-N-(4-nitrophenyl)-1-piperazinecarboxamide], for which the melting point was 247 to 250 °C.
With `COc1cc2nc(Cl)nc(N3CCN(C(=O)Nc4ccc(Oc5ccccc5)cc4)CC3)c2cc1OC` [Compound 392, 4-(2-Chloro-6,7-dimethoxy-4-quinazolinyl)-N-(4-phenoxyphenyl)-1-piperazinecarboxamide] the figure was 178 to 179 °C; with `FC(F)(F)c1ccc2nccc(N3CCN(C(=S)NCc4ccccc4)CC3)c2c1` [Compound 398, N-Benzyl-4-(6-trifluoromethyl-4-quinolyl)-1-piperazinethiocarboxamide], 158 to 159 °C.
Next, `COc1ccc(NC(=O)N2CCN(c3ncnc4cc(OC)c(OC)cc34)CC2)c(OC)c1` [Compound 64, N-(2,4-Dimethoxyphenyl)-4-(6,7-dimethoxy-4-quinazolinyl)-1-piperazinecarboxamide]: 187 to 188 °C; `COc1cc2ncnc(N3CCN(C(=S)Nc4ccncc4)CC3)c2cc1OC` [Compound 268, 4-(6,7-Dimethoxy-4-quinazolinyl)-N-(4-pyridyl)-1-piperazinethiocarboxamide]: 218 to 220 °C; `COc1cc2ncnc(N3CCN(C(=O)Nc4ccc(CN5CCCCC5)cc4)CC3)c2cc1OC` [Compound 100, 4-(6,7-Dimethoxy-4-quinazolinyl)-N-[4-(piperidinomethyl)phenyl]-1-piperazinecarboxamide]: 122 to 123 °C.
The compound `COc1ccc2c(N3CCN(C(=S)NCc4ccccc4)CC3)ncnc2c1OC` [Compound 384, N-Benzyl-4-(7,8-dimethoxy-4-quinazolinyl)-1-piperazinethiocarboxamide] gave a melting point of 158 to 160 °C.
With `COc1cc2ccnc(N3CCN(C(=S)NCc4ccccc4)CC3)c2cc1OC` [Compound 424, N-Benzyl-4-(6,7-dimethoxy-1-isoquinolyl)-1-piperazinethiocarboxamide] the figure was 171 to 172 °C.
On to `COc1cc2ncnc(N3CCN(C(=S)Nc4ccc(Br)c(C)c4)CC3)c2cc1OC` [Compound 191, N-(4-Bromo-3-methylphenyl)-4-(6,7-dimethoxy-4-quinazolinyl)-1-piperazinethiocarboxamide], for which the melting point lay within 160 to 161 °C.
Turning to `COc1cc(OC)c2ncnc(N3CCN(C(=O)Nc4ccc(Oc5ccccc5)cc4)CC3)c2c1` [Compound 381, 4-(6,8-Dimethoxy-4-quinazolinyl)-N-(4-phenoxyphenyl)-1-piperazinecarboxamide], the melting point is 109 to 110 °C.
In turn, `COC(=O)c1cc(NC(=O)N2CCN(c3ncnc4cc(OC)c(OC)cc34)CC2)cc(C(=O)OC)c1` [Compound 91, N-[3,5-Bis(methoxycarbonyl)phenyl]-4-(6,7-dimethoxy-4-quinazolinyl)-1-piperazinecarboxamide] registered a melting point of 252 to 253 °C.
With `COc1ccc2c(N3CCN(C(=O)Nc4ccc(Oc5ccccc5)cc4)CC3)ncnc2c1OC` [Compound 383, 4-(7,8-Dimethoxy-4-quinazolinyl)-N-(4-phenoxyphenyl)-1-piperazinecarboxamide] the figure was 189 to 190 °C; with `O=C(Nc1ccc(Oc2ccccc2)cc1)N1CCN(c2ncnc3cc(F)c(F)cc23)CC1` [Compound 329, 4-(6,7-Difluoro-4-quinazolinyl)-N-(4-phenoxyphenyl)-1-piperazinecarboxamide], 177 to 178 °C.
As for `COc1cc2nncc(N3CCN(C(=O)Nc4ccc(Oc5ccccc5)cc4)CC3)c2cc1OC` [Compound 426, 4-(6,7-Dimethoxy-4-cinnolinyl)-N-(4-phenoxyphenyl)-1-piperazinecarboxamide], the melting point fell in the range of 165 to 167 °C.
In turn, `COc1cc2ncnc(N3CCN(C(=O)Nc4ccc(CNCc5ccncc5)cc4)CC3)c2cc1OC.Cl.Cl.Cl` gave a melting point of 182 to 185 °C.
Next, `COc1cc2ncnc(N3CCN(C(=S)NCc4cccc5ccccc45)CC3)c2cc1OC` [Compound 132, 4-(6,7-Dimethoxy-4-quinazolinyl)-N-(1-naphthylmethyl)-1-piperazinethiocarboxamide]: 164 to 165 °C; `Cl.Cl.S=C(NCc1cccnc1)N1CCN(c2ncnc3cccc(Cl)c23)CC1`: 150 to 152 °C.
The compound `CCCCc1ccc(NC(=S)N2CCN(c3ncnc4cc(OC)c(OC)cc34)CC2)cc1` [Compound 21, N-(4-Butylphenyl)-4-(6,7-dimethoxy-4-quinazolinyl)-1-piperazinethiocarboxamide] registered a melting point of 171 to 173 °C.
`COC(=O)c1scc(C)c1NC(=S)N1CCN(c2ncnc3cc(OC)c(OC)cc23)CC1` [Compound 261, 4-(6,7-Dimethoxy-4-quinazolinyl)-N-(2-methoxycarbonyl-4-methyl-3-thienyl)-1-piperazinethiocarboxamide] came in with a melting point of 113 to 116 °C.
With `Cl.Cl.S=C(NCc1cccnc1)N1CCN(c2ccnc3ccc(Cl)cc23)CC1` the figure was 162 to 164 °C.
`COc1cc2ncnc(N3CCN(C(=O)Nc4ccc(C)c(C)c4)CC3)c2cc1OC` [Compound 30, 4-(6,7-Dimethoxy-4-quinazolinyl)-N-(3,4-dimethylphenyl)-1-piperazinecarboxamide]: the melting point was in the range of 202 to 203 °C.
With `COc1cc2ncnc(N3CCN(C(=S)Nc4ccc(N=Nc5ccc(N(C)C)cc5)cc4)CC3)c2cc1OC` [Compound 74, 4-(6,7-Dimethoxy-4-quinazolinyl)-N-[4-(4-dimethylaminophenylazo)phenyl]-1-piperazinethiocarboxamide] the figure was 148 to 149 °C; with `COc1cc2ncnc(N3CCN(C(=S)Nc4ccc(SC(F)(F)F)cc4)CC3)c2cc1OC` [Compound 220, 4-(6,7-Dimethoxy-4-quinazolinyl)-N-(4-trifluoromethylthiophenyl)-1-piperazinethiocarboxamide], 128 to 131 °C; with `CCN(CC)c1ccc(NC(=S)N2CCN(c3ncnc4cc(OC)c(OC)cc34)CC2)cc1` [Compound 72, N-(4-Diethylaminophenyl)-4-(6,7-dimethoxy-4-quinazolinyl)-1-piperazinethiocarboxamide], 147 to 148 °C.
Next, `CCc1cccc(NC(=S)N2CCN(c3ncnc4cc(OC)c(OC)cc34)CC2)c1` [Compound 149, 4-(6,7-Dimethoxy-4-quinazolinyl)-N-(3-ethylphenyl)-1-piperazinethiocarboxamide]: 195 to 197 °C.

Usually melting point stands for the temperature, or range, at which the solid turns liquid.

These data come from patent US6472391B2, “Nitrogen-containing heterocyclic compounds” (Millennium Pharmaceuticals, Inc., priority 1996, dated 2002).
